In PubChem BioAssay (NCI):
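Test compounds were applied to cells in 96-well plates for 48 hours at 5 doses. TGI is the concentration that stops growth completely.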

Experiments:
Test in all cases: inhibition of tumour cell growth, NCI panel, 48 h
[1] = tested on: OVCAR-5 ovarian
[2] = tested on: NCI-H23 lung
[3] = tested on: MDA-N
[4] = tested on: OVCAR-4 ovarian
[5] = tested on: M14 melanoma
[6] = tested on: OVCAR-8 ovarian
[7] = tested on: MDA-MB-435
[8] = tested on: A498 renal
[9] = tested on: IGROV1 ovarian
[10] = tested on: CCRF-CEM leukemia
[11] = tested on: SN12C renal
[12] = tested on: HT29 colon
[13] = tested on: NCI/ADR-RES ovarian
[14] = tested on: TK-10 renal
[15] = tested on: COLO 205 colon
[16] = tested on: SW-620 colon
[17] = tested on: EKVX NSCLC
[18] = tested on: HS 578T breast
[19] = tested on: SK-MEL-28 melanoma
[20] = tested on: SK-MEL-5 melanoma
[21] = tested on: LOX IMVI melanoma
[22] = tested on: MDA-MB-231 breast
[23] = tested on: ACHN renal
[24] = tested on: NCI-H522 lung
[25] = tested on: HCT-116 colon
[26] = tested on: MALME-3M melanoma
[27] = tested on: SK-OV-3 ovarian
[28] = tested on: SK-MEL-2 melanoma
[29] = tested on: MOLT-4 leukemia
[30] = tested on: SF-295 CNS
[31] = tested on: BT-549 breast
[32] = tested on: HCC-2998 colon
[33] = tested on: PC-3 prostate
[34] = tested on: HOP-62 NSCLC
[35] = tested on: CAKI-1 renal
[36] = tested on: SF-268 CNS
[37] = tested on: UO-31 renal
[38] = tested on: SNB-19 CNS
[39] = tested on: NCI-H460 lung
[40] = tested on: DU-145 prostate
[41] = tested on: UACC-257 melanoma
[42] = tested on: KM12 colon
[43] = tested on: T-47D breast
[44] = tested on: U251 CNS
[45] = tested on: NCI-H226 lung
[46] = tested on: RPMI-8226 leukemia
[47] = tested on: OVCAR-3 ovarian
[48] = tested on: HCT-15 colon
[49] = tested on: RXF 393 renal
[50] = tested on: UACC-62 melanoma
[51] = tested on: 786-0 renal
[52] = tested on: K-562 leukemia
[53] = tested on: MCF7 breast
[54] = tested on: A549 NSCLC
[55] = tested on: SNB-75 CNS
[56] = tested on: SF-539 CNS
[57] = tested on: HL-60(TB) leukemia
[58] = tested on: SR leukemia
[59] = tested on: HOP-92 NSCLC

Measured: TGI

O=C(O)c1cccc(CN2CCCCC2)c1
not listed: [55] | [56] | [57] | [58] | [59]
> 100 µM: all other assays above

CO[C@]12C#CC=CC#C[C@@H](O)[C@]3(CCC1)O[C@@]23c1cccc(O)c1
not listed: [9] | [10] | [12] | [17] | [20] | [24] | [26] | [56] | [57] | [58] | [59]
> 100 µM: all other assays above

COC(=O)c1ccccc1C1CN=NC12Cc1c(C)cccc1C2=O (stereo not given)
not listed: [33]
> 100 µM: all other assays above
